Among the data in US5250679A, “Nonpeptidyl platelet aggregation inhibitors having specificity for the GPIIb III receptor” (Genentech, Inc., priority 1992, dated 1993) are IC50 values, retold here.

Structures can show the parent of a compound that is named as a salt. Bounds are passed on as bounds.

The target of this assay is T1, GP IIb IIIa (Homo sapiens, UniProt P05106+P08514).
T1 construct: from tissue; host or cells: outdated human platelets
Kind of assay: Fibrinogen-GP IIb IIIa Receptor ELISA Binding Assay (Fg/IIbIIIa). The settings on record: Example 29, Cmpd # 1-105; read-out: IC50 Fg/IIbI. How it is done:
Briefly, microtiter plates are coated with fibrinogen (10 mg/ml) and then blocked with TACTS buffer containing 0.5% bovine serum albumin (BSA). […] After another wash a goat anti-mouse IgG conjugated to horseradish peroxidase is added. […] The reaction is stopped with 1N sulfuric acid and the absorbance at 492 nm is recorded. […] Outdated human platelets are washed 3 times with 10 mM tris-HCl, 150 mM NaCl (TBS), 1 mM EDTA, pH 7.5, and centrifuged at 2000×g to pellet cells. […] The supernatant fraction is collected and the supernatant is loaded onto a concanavalin-A column, previously equilibrated in TBS, 1 mM Ca2 Cl2, 0.1% Triton, 0.05% NaN3 and eluted with 0.2M a-methylmannoside. Fractions are pooled and loaded onto a heparin-agarose column. The flowthrough is collected and concentrated on an Amicon YM 30 filter to a volume of approximately 5-10 ml. The concentrate is then applied to an S-300 column (500 ml) and 6 ml fractions are collected. The GP IIb IIIa containing fractions are collected, pooled, and stored at -80° C. […] The precipitate is spun down in appropriate size bottles at 2000×g. The supernatant is decanted and the precipitate resuspended in 150 mM NaCl (approximately 50% of the original volume). […] The suspension is spun down and the precipitate is resuspended in Tris-saline in a minimal volume (approximately 5% of the original volume). Any remaining insoluble material is spun down at 2000 rpm in a Sorval type centrifuge and the fibrinogen supernatant is decanted and dialyzed overnight at 4° C. against Tris-saline. Characterization of the fibrinogen is by the Bradford protein assay, SDS-PAGE, and/or Western blotting using well known standard procedures. Briefly, 96 well plates are coated (Type Nunc 1 MaxisorpTM) with 10 mg/ml purified fibrinogen ([…]), and allowed to stand overnight at 4° C. […] The plates are again washed three times with PBS/Tween and then […] of sample in TNCNT is added. The mixture is incubated for 15 minutes at room temperature on a plate shaker. […] Fifty ml of this diluted GP IIb IIIa is then added to each well and incubated on a plate shaker at room temperature. After one hour, the plates are washed four times with PBS/Tween and 100 ml of a polyclonal or monoclonal antibody specific for GP IIIa such as AP3 (1 mg/ml) (See e.g. […] After a one hour incubation at room temperature on a plate shaker, the samples are washed 4 times with PBS/Tween. […] The color develops within about 3 to 20 minutes and the reaction is stopped with 100 ml 1M H2 SO4. The optical density at 492 nm vs 405 nm is recorded and IC50 values are determined.

T1 sequence (P08514 32-887 limits assumed): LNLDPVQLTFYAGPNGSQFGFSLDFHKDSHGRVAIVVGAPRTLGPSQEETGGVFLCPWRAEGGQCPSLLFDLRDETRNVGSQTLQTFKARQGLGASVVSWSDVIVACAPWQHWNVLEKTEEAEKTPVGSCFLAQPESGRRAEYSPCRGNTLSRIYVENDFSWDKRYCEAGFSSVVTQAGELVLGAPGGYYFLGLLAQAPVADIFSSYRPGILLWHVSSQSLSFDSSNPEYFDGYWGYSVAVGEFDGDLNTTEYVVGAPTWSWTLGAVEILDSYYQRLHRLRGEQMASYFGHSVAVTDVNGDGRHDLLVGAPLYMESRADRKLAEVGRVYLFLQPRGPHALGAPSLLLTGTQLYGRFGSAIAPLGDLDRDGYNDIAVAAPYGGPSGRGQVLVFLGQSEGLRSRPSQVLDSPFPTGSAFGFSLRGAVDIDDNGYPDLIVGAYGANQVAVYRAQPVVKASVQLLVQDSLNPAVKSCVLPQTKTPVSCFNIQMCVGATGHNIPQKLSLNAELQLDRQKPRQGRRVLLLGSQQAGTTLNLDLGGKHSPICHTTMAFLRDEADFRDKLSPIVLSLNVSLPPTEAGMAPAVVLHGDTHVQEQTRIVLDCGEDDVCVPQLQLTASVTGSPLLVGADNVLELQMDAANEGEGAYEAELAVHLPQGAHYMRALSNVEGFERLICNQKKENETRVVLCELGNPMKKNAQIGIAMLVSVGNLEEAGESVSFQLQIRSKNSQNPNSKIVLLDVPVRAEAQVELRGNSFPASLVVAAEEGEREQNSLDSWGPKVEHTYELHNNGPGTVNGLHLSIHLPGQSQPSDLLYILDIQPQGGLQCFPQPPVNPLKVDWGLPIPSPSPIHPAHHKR
T1 sequence (P08514 891-1039 partner limits assumed): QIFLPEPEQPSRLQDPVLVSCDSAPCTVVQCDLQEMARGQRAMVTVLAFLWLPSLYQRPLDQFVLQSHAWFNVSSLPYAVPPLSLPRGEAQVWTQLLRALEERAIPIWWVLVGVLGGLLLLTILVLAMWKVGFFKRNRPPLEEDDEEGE
T1 sequence (P05106 27-788): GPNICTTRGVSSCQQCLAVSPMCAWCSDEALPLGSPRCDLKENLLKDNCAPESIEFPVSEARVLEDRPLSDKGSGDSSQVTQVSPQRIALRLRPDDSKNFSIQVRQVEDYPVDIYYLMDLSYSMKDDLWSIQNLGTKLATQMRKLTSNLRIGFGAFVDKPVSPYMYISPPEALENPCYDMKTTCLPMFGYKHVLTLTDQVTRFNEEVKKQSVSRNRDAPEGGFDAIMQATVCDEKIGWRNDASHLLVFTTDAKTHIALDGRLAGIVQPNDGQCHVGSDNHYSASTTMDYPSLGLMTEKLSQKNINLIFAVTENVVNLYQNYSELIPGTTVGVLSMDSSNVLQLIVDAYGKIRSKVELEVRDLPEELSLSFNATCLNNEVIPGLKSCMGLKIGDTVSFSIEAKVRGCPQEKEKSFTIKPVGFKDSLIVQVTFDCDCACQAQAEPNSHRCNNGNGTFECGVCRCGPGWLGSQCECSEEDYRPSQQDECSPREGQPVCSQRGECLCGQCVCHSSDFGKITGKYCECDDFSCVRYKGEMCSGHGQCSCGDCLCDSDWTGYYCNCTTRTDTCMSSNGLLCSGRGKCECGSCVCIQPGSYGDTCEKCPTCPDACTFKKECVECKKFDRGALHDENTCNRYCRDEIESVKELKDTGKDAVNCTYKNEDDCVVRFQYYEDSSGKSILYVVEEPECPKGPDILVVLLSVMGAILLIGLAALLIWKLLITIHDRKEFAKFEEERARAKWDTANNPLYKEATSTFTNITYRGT

In the case of `NCCCc1ccc2c(c1)C(=O)N(CCC(=O)O)CC(=O)N2` [Cmpd 1], the IC50 is 8.3 µM.

For `CN1C(=O)CN(CCC(=O)O)C(=O)c2cc(CCCN)ccc21` [Cmpd 3], the IC50 was determined as 28 µM.

On to `CN1C(=O)CN(CCC(=O)O)C(=O)c2cc(CCCNC(=N)N)ccc21` [Cmpd 4], for which the IC50 was found to be 0.466 µM.

Turning to `CN1C(=O)CN(CCC(=O)O)C(=O)c2cc(C#CCN)ccc21` [Cmpd 5], the IC50 came to 7 µM.

Regarding `CN1C(=O)CN(CCC(=O)O)C(=O)c2cc(C#CCNC(=N)N)ccc21` [Cmpd 6], the IC50 amounted to 0.17 µM.

In the case of `CC1C(=O)N(C)c2ccc(CCCN)cc2C(=O)N1CCC(=O)O` (centres unmarked) [Cmpd 7], the IC50 came out at 30 µM.

Turning to `CC1C(=O)N(C)c2ccc(CCCNC(=N)N)cc2C(=O)N1CCC(=O)O` (centres unmarked) [Cmpd 8], the IC50 was above 100 µM.

Take `CC1C(=O)N(C)c2ccc(C#CCN)cc2C(=O)N1CCC(=O)O` (centres unmarked) [Cmpd 9]: the IC50 was 70 µM.

Turning to `CC1C(=O)N(C)c2ccc(C#CCNC(=N)N)cc2C(=O)N1CCC(=O)O` (centres unmarked) [Cmpd 10], the IC50 was found to be 30 µM.

`CN1C(=O)C(c2ccccc2)N(CCC(=O)O)C(=O)c2cc(CCCN)ccc21` (centres unmarked) [Cmpd 11]: the IC50 came out at 600 µM.

As to `CN1C(=O)C(c2ccccc2)N(CCC(=O)O)C(=O)c2cc(CCCNC(=N)N)ccc21` (centres unmarked) [Cmpd 12], the IC50 was found to be 2.3 µM.

Turning to `CN1C(=O)C(c2ccccc2)N(CCC(=O)O)C(=O)c2cc(C#CCN)ccc21` (centres unmarked) [Cmpd 13], the IC50 is above 1000 µM.

Turning to `CN1C(=O)C(c2ccccc2)N(CCC(=O)O)C(=O)c2cc(C#CCNC(=N)N)ccc21` (centres unmarked) [Cmpd 14], the IC50 is 25 µM.

`CN1C(=O)C2CCC(CC(=O)O)N2C(=O)c2cc(CCCN)ccc21` (centres unmarked) [Cmpd 15]: the IC50 is above 100 µM.

Take `CN1C(=O)C2CCC(CC(=O)O)N2C(=O)c2cc(CCCNC(=N)N)ccc21` (centres unmarked) [Cmpd 16]: the IC50 is above 100 µM.

`CN1C(=O)C2CCC(CC(=O)O)N2C(=O)c2cc(CCCN)ccc21` (centres unmarked) [Cmpd 17]: the IC50 was above 100 µM.

`CN1C(=O)C2CCC(CC(=O)O)N2C(=O)c2cc(CCCNC(=N)N)ccc21` (centres unmarked) [Cmpd 18]: the IC50 is above 100 µM.

As for `CN1C(=O)CN(CCC(=O)O)C(=O)c2cc(CCCCN)ccc21` [Cmpd 19], the IC50 amounted to 5 µM.

`CN1C(=O)CN(CCC(=O)O)C(=O)c2cc(C#CCCN)ccc21` [Cmpd 21]: the IC50 came out at 6 µM.

As for `CC1C(=O)N(C)c2ccc(CCCCN)cc2C(=O)N1CCC(=O)O` (centres unmarked) [Cmpd 23], the IC50 is above 100 µM.

As for `CC1C(=O)N(C)c2ccc(CCCCNC(=N)N)cc2C(=O)N1CCC(=O)O` (centres unmarked) [Cmpd 24], the IC50 stood at 100 µM.

`CC1C(=O)N(C)c2ccc(C#CCCN)cc2C(=O)N1CCC(=O)O` (centres unmarked) [Cmpd 25]: the IC50 is above 100 µM.

Take `CC1C(=O)N(C)c2ccc(C#CCCNC(=N)N)cc2C(=O)N1CCC(=O)O` (centres unmarked) [Cmpd 26]: the IC50 was 80 µM.

Turning to `NCCCCCc1ccc2c(c1)C(=O)N(CCC(=O)O)CC(=O)N2` [Cmpd 29], the IC50 turned out to be 2.92 µM.

Regarding `N=C(N)NCCCCCc1ccc2c(c1)C(=O)N(CCC(=O)O)CC(=O)N2` [Cmpd 30], the IC50 is 0.204 µM.

`NCCCC#Cc1ccc2c(c1)C(=O)N(CCC(=O)O)CC(=O)N2` [Cmpd 31]: the IC50 turned out to be 1.43 µM.

`N=C(N)NCCCC#Cc1ccc2c(c1)C(=O)N(CCC(=O)O)CC(=O)N2` [Cmpd 32]: the IC50 was determined as 0.254 µM.

Take `CC(CC(=O)O)N1CC(=O)N(C)c2ccc(C#CCCCN)cc2C1=O` (centres unmarked) [Cmpd 37, 1-methyl-4-(2-carboxy-1-methylethyl)-7-(5-amino-1-pentyne)-3,4-dihydro-1H-1,4-benzodiazepine-2,5-dione trifluroacetate]: the IC50 is 0.061 µM.

On to `CN1C(=O)CN(CCC(=O)O)C(=O)c2cc(CCCCCCN)ccc21` [Cmpd 39], for which the IC50 was determined as 0.07 µM.

In the case of `CN1C(=O)CN(CCC(=O)O)C(=O)c2cc(CCCCCCNC(=N)N)ccc21` [Cmpd 40], the IC50 is 0.12 µM.

In the case of `CN1C(=O)CN(CCC(=O)O)C(=O)c2cc(C#CCCCCN)ccc21` [Cmpd 41, 1-(methyl)-4-(2-carboxyethyl)-7-(6-amino-1-hexynyl)-3,4-dihydro-1H-1,4-benzodiazepine-2,5-dione trifluroacetate], the IC50 was determined as 0.1 µM.

`CN1C(=O)CN(CCC(=O)O)C(=O)c2cc(CCc3ccc(CN)cc3)ccc21` [Cmpd 45]: the IC50 turned out to be 0.085 µM.

Take `CN1C(=O)CN(CCC(=O)O)C(=O)c2cc(CCc3ccc(CNC(=N)N)cc3)ccc21` [Cmpd 46]: the IC50 came out at 0.265 µM.

As to `CN1C(=O)CN(CCC(=O)O)C(=O)c2cc(CCc3cccc(N)c3)ccc21` [Cmpd 47], the IC50 turned out to be 10 µM.

On to `CN1C(=O)CN(CCC(=O)O)C(=O)c2cc(C#Cc3cccc(N)c3)ccc21` [Cmpd 49], for which the IC50 was found to be 6 µM.

As for `CN1C(=O)CN(C(CC(=O)O)c2ccccc2)C(=O)c2cc(CCCCCCN)ccc21` (centres unmarked) [Cmpd 51], the IC50 was found to be 0.2 µM.

Take `CN1C(=O)CN(C(CC(=O)O)c2ccccc2)C(=O)c2cc(CCCCCCNC(=N)N)ccc21` (centres unmarked) [Cmpd 52]: the IC50 turned out to be 0.39 µM.

Regarding `CN1C(=O)CN(C(CC(=O)O)c2ccccc2)C(=O)c2cc(C#CCCCCN)ccc21` (centres unmarked) [Cmpd 53], the IC50 was determined as 0.24 µM.

For the compound `CN1C(=O)CN(C(CC(=O)O)c2ccccc2)C(=O)c2cc(C#CCCCCNC(=N)N)ccc21` (centres unmarked) [Cmpd 54], the IC50 was found to be 0.1 µM.

With `CN1C(=O)CN(CCC(=O)O)C(=O)c2cc(C#Cc3ccc(C#N)cc3)ccc21` [Cmpd 57], the IC50 was 30 µM.

With `NCCCC#Cc1ccc2c(c1)C(=O)N(CCC(=O)O)CC(=O)N2Cc1ccc(Cl)cc1` [Cmpd 58], the IC50 is 0.062 µM.

`N=C(N)NCCCC#Cc1ccc2c(c1)C(=O)N(CCC(=O)O)CC(=O)N2Cc1ccc(Cl)cc1` [Cmpd 59]: the IC50 is 0.009 µM.

In the case of `N=C(N)NCCCCC#Cc1ccc2c(c1)C(=O)N(CCC(=O)O)CC(=O)N2Cc1ccc(Cl)cc1` [Cmpd 61], the IC50 is 0.043 µM.

For the compound `NCCCCCc1ccc2c(c1)C(=O)N(CCC(=O)O)CC(=O)N2Cc1ccc(Cl)cc1` [Cmpd 62], the IC50 worked out at 0.176 µM.

As for `N=C(N)NCCCCCCc1ccc2c(c1)C(=O)N(CCC(=O)O)CC(=O)N2Cc1ccc(Cl)cc1` [Cmpd 65], the IC50 is 0.05 µM.

`N=C(N)NCCCCCCCc1ccc2c(c1)C(=O)N(CCC(=O)O)CC(=O)N2Cc1ccc(Cl)cc1` [Cmpd 67]: the IC50 stood at 0.2 µM.

Turning to `COc1ccc(CN2C(=O)CN(CCC(=O)O)C(=O)c3cc(CCCCCNC(=N)N)ccc32)cc1` [Cmpd 79, 1-(p-methoxybenzyl)-4-(2-carboxyethyl)-7-(5-guanidinopentyl)-3,4-dihydro-1H-1,4-benzodiazepine-2,5-dione trifluoroacetate], the IC50 stood at 0.011 µM.

Consider `COc1ccc(CN2C(=O)CN(CCC(=O)O)C(=O)c3cc(CCCCCN)ccc32)cc1` [Cmpd 80, 1-(p-methoxybenzyl)-4-(2-carboxyethyl)-7-(5-aminopentyl)-3,4-dihydro-1H-1,4-benzodiazepine-2,5-dione trifluoroacetate], for which the IC50 is 0.16 µM.

`N=C(N)NCCCCCCc1ccc2c(c1)C(=O)N(CCC(=O)O)CC(=O)N2Cc1ccc2ccccc2c1` [Cmpd 86, 1-(2-napthyl)methyl-4-(2-carboxyethyl)-7-(6-guanidinohexyl)-3,4-dihydro-1H-1,4-benzodiazepine-2,5-dione trifluoroacetate]: the IC50 was 0.055 µM.

For `NCCCCC#Cc1ccc2c(c1)C(=O)N(CCC(=O)O)CC(=O)N2Cc1ccc([N+](=O)[O-])cc1` [Cmpd 87], the IC50 turned out to be 0.031 µM.

For the compound `N=C(N)NCCCCC#Cc1ccc2c(c1)C(=O)N(CCC(=O)O)CC(=O)N2Cc1ccc([N+](=O)[O-])cc1` [Cmpd 88], the IC50 stood at 0.031 µM.

In the case of `N=C(N)NCCCCCCc1ccc2c(c1)C(=O)N(CCC(=O)O)CC(=O)N2Cc1ccc(C(F)(F)F)cc1` [Cmpd 89, 1-(p-trifluoromethylbenzyl)-4-(2-carboxyethyl)-7-(6-guanidinohexyl)-3,4-dihydro-1H-1,4-benzodiazepine-2,5-dione trifluoroacetate], the IC50 amounted to 0.047 µM.

For the compound `NCCCCCCc1ccc2c(c1)C(=O)N(CCC(=O)O)CC(=O)N2Cc1ccc(C(F)(F)F)cc1` [Cmpd 90, 1-(p-trifluoromethylbenzyl)-4-(2-carboxyethyl)-7-(6-aminohexyl)-3,4-dihydro-1H-1,4-benzodiazepine-2,5-dione trifluoroacetate], the IC50 worked out at 0.005 µM.
